pIC50: −log10 of the molar value.
Assays:
[1] = Dynamic vapor sorption (DVS); assay type: physicochemical
Description: Approximately 10-20 mg of sample was placed into a mesh vapor sorption balance pan and loaded into a DVS Intrinsic or Advantage dynamic vapor sorption balance by Surface Measurement Systems. The sample was subjected to a ramping profile from 40-90% relative humidity (RH) at 10% increments, maintaining the sample at each step until a stable weight had been achieved (dm/dt 0.004%, minimum step length 30 minutes, maximum step length 200 or 500 minutes) at 25° C. After completion of the sorption cycle, the sample was dried using the same procedure to 0% RH and then a second sorption cycle back to 40% RH. Two cycles were performed. The weight change during the sorption/desorption cycles were plotted, allowing for the hygroscopic nature of the sample to be determined.

[2] = Competitive slurrying of free base Forms A, B and C; assay type: physicochemical
Description: Competitive slurries were carried out at 20° C. and 60° C. using the following procedure: 1.5 mL slurries of Formula (I) were prepared in t-BME, acetone, ethanol, and 2-Me THF at 60° C. in 2 mL screw cap vials. The slurries were syringe filtered (0.45 μm PTFE filter) after ca. 1 hour to obtain saturated Formula (I) solutions. Ca. 0.6 mL of saturated solution was added to ca. 10 mg of free base Forms A, B, and C to form slurries. The experiments were agitated at either ambient temperature (ca. 20° C.) and 60° C. for 48 h.
After 48 h the slurries were isolated by centrifugation (nylon, 0.22 μm) and analyzed by XRPD. Where mixtures were observed competitive slurrying was continued until mixtures were no longer observed (21 days).

[3] = Seven day stability of Formula (I) Form C; assay type: physicochemical
[4] = Storage stability of Formula (I) Form C (long-term and accelerated); assay type: physicochemical; conditions: for Chemical Purity Assay: anhydrous; for Crystallinity: to Form C
Description: Formula (I) Form C was evaluated for stability (Table 16 and Table 17). The Form C was stored in polyethylene double bags sealed with Nylon lock ties, and inside a capped polyethylene container at Wilmington PharmaTech Company. The storage conditions were long-term condition 25° C./60% RH, or accelerated condition 40° C./75% RH. The samples were analyzed for appearance, assay, related substances, chiral purity, water content and crystallinity.

[5] = ambient temperature and humidity
CaMKII = CaMKII inhibitor, US publication no. 20220098207; cited from earlier work
[6] = Storage stability of Formula (I) L-tartaric acid Form 2 co-crystal (long-term and accelerated); assay type: physicochemical; conditions: for Chemical Purity Assay: ASFB; for Crystallinity: to Form 2
Description: Formula (I) L-tartaric acid Form 2 co-crystal was evaluated for stability (Table 18 and Table 19). The co-crystal was stored in polyethylene double bags sealed with Nylon lock ties with two (2) 0.5 g silica gel desiccant packets in between, and inside a capped polyethylene container containing four (4) 33 g Silica Gel desiccant packs. The storage conditions were long-term condition 25° C./60% RH or accelerated condition 40° C./75% RH. The samples were analyzed for appearance, assay, related substances, chiral purity, water content and crystallinity.

[7] = as above; assay type: physicochemical; conditions: 25° C./60% RH, 0 months; to Form 2

COc1ccnc(-c2cnc3ccc(-c4ccc(F)c(O[C@@H](C)Cn5cnnn5)c4)nn23)c1C#N [Formula (I) Form C, (S)-2-(6-(3-((1-(1H-tetrazol-1-yl)propan-2-yl)oxy)-4-fluorophenyl)imidazo[1,2-b]pyridazin-3-yl)-4-methoxynicotinonitrile]
hygroscopicity by DVS ([1]; 25° C.): slightly hygroscopic
Post-DVS XRPD analysis ([1]; after DVS): Form C was retained
uptake (DVS) ([1]; at 80% RH): 0.3%
Time until Form C was only detected polymorph ([2]; 60° C., 2-Me THF): 2 days
Time until Form C was only detected polymorph ([2]; 60° C., Ethanol): 2 days
Time until Form C was only detected polymorph ([2]; 60° C., acetone): 2 days
Time until Form C was only detected polymorph ([2]; 60° C., t-BME): 15 days
relative stability of free base polymorphs ([2]; all solvents tested, 20° C. and 60° C.): most stable polymorph
Time until Form C was only detected polymorph ([2]; ambient (ca. 20° C.), 2-Me THF): 9 days
Time until Form C was only detected polymorph ([2]; ambient (ca. 20° C.), Ethanol): 8 days
Time until Form C was only detected polymorph ([2]; ambient (ca. 20° C.), acetone): 2 days
Time until Form C was only detected polymorph ([2]; ambient (ca. 20° C.), t-BME): 21 days
HPLC Purity ([3]; 7 day, 25° C./60% RH): 99.0 % area
XRPD Analysis ([3]; 7 day, 25° C./60% RH): Form C
HPLC Purity ([3]; 7 day, 40° C./75% RH): 99.0 % area
XRPD Analysis ([3]; 7 day, 40° C./75% RH): Form C
HPLC Purity ([3]; 7 day, 80° C.): 98.9 % area
XRPD Analysis ([3]; 7 day, 80° C.): Form C
HPLC analysis, change in purity after 7 day stability ([3]; 7 day, all conditions): no loss in purity
XRPD analysis after 7 day stability ([3]; 7 day, all conditions): retained
Input Purity ([3]; before storage): 98.8 % area
Chiral Purity ([4]; 25° C./60% RH, 0 months): >99.9 area %
Description ([4]; 25° C./60% RH, 0 months): Off-white
Related Substances: Impurity #1 ([4]; 25° C./60% RH, 0 months): 0.05%
Related Substances: Impurity #2 ([4]; 25° C./60% RH, 0 months): 0.18%
Total Impurities ([4]; 25° C./60% RH, 0 months): 0.23%
Water ([4]; 25° C./60% RH, 0 months): 0.29%
Chemical Purity Assay ([4]; 25° C./60% RH, 0 months): 100.1 wt %
Crystallinity ([4]; 25° C./60% RH, 0 months): Conforms
Chiral Purity ([4]; 25° C./60% RH, 12 months): >99.9 area %
Description ([4]; 25° C./60% RH, 12 months): Off-white
Related Substances: Impurity #1 ([4]; 25° C./60% RH, 12 months): 0.05%
Related Substances: Impurity #2 ([4]; 25° C./60% RH, 12 months): 0.18%
Total Impurities ([4]; 25° C./60% RH, 12 months): 0.23%
Water ([4]; 25° C./60% RH, 12 months): 0.32%
Chemical Purity Assay ([4]; 25° C./60% RH, 12 months): 99.4 wt %
Crystallinity ([4]; 25° C./60% RH, 12 months): Conforms
Chiral Purity ([4]; 25° C./60% RH, 24 months): >99.9 area %
Description ([4]; 25° C./60% RH, 24 months): Off-white
Related Substances: Impurity #1 ([4]; 25° C./60% RH, 24 months): 0.05%
Related Substances: Impurity #2 ([4]; 25° C./60% RH, 24 months): 0.18%
Total Impurities ([4]; 25° C./60% RH, 24 months): 0.23%
Water ([4]; 25° C./60% RH, 24 months): 0.35%
Chemical Purity Assay ([4]; 25° C./60% RH, 24 months): 99.4 wt %
Crystallinity ([4]; 25° C./60% RH, 24 months): Conforms
B. Unidentified Impurities (RRT: %), first listed ([4]; 40° C./75% RH, 0 months): 0.07%
B. Unidentified Impurities (RRT: %), second listed ([4]; 40° C./75% RH, 0 months): 0.05%
Chiral Purity ([4]; 40° C./75% RH, 0 months): >99.9 area %
Description ([4]; 40° C./75% RH, 0 months): Off-white
Related Substances: Impurity #1 ([4]; 40° C./75% RH, 0 months): 0.09%
Related Substances: Impurity #2 ([4]; 40° C./75% RH, 0 months): 0.19%
Related Substances: Impurity #3 ([4]; 40° C./75% RH, 0 months): <0.05%
Total Impurities ([4]; 40° C./75% RH, 0 months): 0.40%
Water ([4]; 40° C./75% RH, 0 months): 0.36%
Chemical Purity Assay ([4]; 40° C./75% RH, 0 months): 99.6 wt %
Crystallinity ([4]; 40° C./75% RH, 0 months): Conforms
B. Unidentified Impurities (RRT: %), first listed ([4]; 40° C./75% RH, 6 months): 0.06%
B. Unidentified Impurities (RRT: %), second listed ([4]; 40° C./75% RH, 6 months): 0.06%
Chiral Purity ([4]; 40° C./75% RH, 6 months): >99.9 area %
Description ([4]; 40° C./75% RH, 6 months): Off-white
Related Substances: Impurity #1 ([4]; 40° C./75% RH, 6 months): 0.08%
Related Substances: Impurity #2 ([4]; 40° C./75% RH, 6 months): 0.19%
Related Substances: Impurity #3 ([4]; 40° C./75% RH, 6 months): 0.05%
Total Impurities ([4]; 40° C./75% RH, 6 months): 0.44%
Water ([4]; 40° C./75% RH, 6 months): 0.15%
Chemical Purity Assay ([4]; 40° C./75% RH, 6 months): 99.3 wt %
Crystallinity ([4]; 40° C./75% RH, 6 months): Conforms
B. Unidentified Impurities (RRT: %), first listed ([4]; 40° C./75% RH, 12 months): 0.06%
Chiral Purity ([4]; 40° C./75% RH, 12 months): >99.9 area %
Description ([4]; 40° C./75% RH, 12 months): Off-white
Related Substances: Impurity #1 ([4]; 40° C./75% RH, 12 months): 0.08%
Related Substances: Impurity #2 ([4]; 40° C./75% RH, 12 months): 0.19%
Related Substances: Impurity #3 ([4]; 40° C./75% RH, 12 months): <0.05%
Total Impurities ([4]; 40° C./75% RH, 12 months): 0.33%
Water ([4]; 40° C./75% RH, 12 months): 0.49%
Chemical Purity Assay ([4]; 40° C./75% RH, 12 months): 99.6 wt %
Crystallinity ([4]; 40° C./75% RH, 12 months): Conforms

COc1ccnc(-c2cnc3ccc(-c4ccc(F)c(O[C@@H](C)Cn5cnnn5)c4)nn23)c1C#N.O=C(O)C(O)C(O)C(=O)O
form conversion on standing [5]: converted to L-tartaric acid co-crystal Form 2

COc1ccnc(-c2cnc3ccc(-c4ccc(F)c(O[C@@H](C)Cn5cnnn5)c4)nn23)c1C#N [Example 321, (S)-2-(6-(3-((1-(1H-tetrazol-1-yl)propan-2-yl)oxy)-4-fluorophenyl)imidazo[1,2-b]pyridazin-3-yl)-4-methoxynicotinonitrile]
pIC50 (CaMKII): > 8.00

COc1ccnc(-c2cnc3ccc(-c4ccc(F)c(O[C@@H](C)Cn5cnnn5)c4)nn23)c1C#N.COc1ccnc(-c2cnc3ccc(-c4ccc(F)c(O[C@@H](C)Cn5cnnn5)c4)nn23)c1C#N.O.O=C(O)C(O)C(O)C(=O)O.O=C(O)C(O)C(O)C(=O)O [Formula (I) L-Tartaric Acid Form 2]
Chiral Purity ([6]; 25° C./60% RH, 0 months): >99.9 area %
Description ([6]; 25° C./60% RH, 0 months): Off-white
Related Substances: Impurity #1 ([6]; 25° C./60% RH, 0 months): 0.25%
Total Impurities ([6]; 25° C./60% RH, 0 months): 0.25%
Water ([6]; 25° C./60% RH, 0 months): 1.59%
Chemical Purity Assay ([6]; 25° C./60% RH, 0 months): 99.3 wt %
Description ([6]; 25° C./60% RH, 3 months): Off-white
Related Substances: Impurity #1 ([6]; 25° C./60% RH, 3 months): 0.25%
Total Impurities ([6]; 25° C./60% RH, 3 months): 0.25%
Water ([6]; 25° C./60% RH, 3 months): 1.58%
Chemical Purity Assay ([6]; 25° C./60% RH, 3 months): 99.6 wt %
Crystallinity ([6]; 25° C./60% RH, 3 months): Conforms
Chiral Purity ([6]; 25° C./60% RH, 6 months): >99.9 area %
Description ([6]; 25° C./60% RH, 6 months): Off-white
Related Substances: Impurity #1 ([6]; 25° C./60% RH, 6 months): 0.26%
Total Impurities ([6]; 25° C./60% RH, 6 months): 0.26%
Water ([6]; 25° C./60% RH, 6 months): 1.55%
Chemical Purity Assay ([6]; 25° C./60% RH, 6 months): 99.3 wt %
Crystallinity ([6]; 25° C./60% RH, 6 months): Conforms
Chiral Purity ([6]; 40° C./75% RH, 0 months): >99.9 area %
Description ([6]; 40° C./75% RH, 0 months): Off-white
Related Substances: Impurity #1 ([6]; 40° C./75% RH, 0 months): 0.25%
Total Impurities ([6]; 40° C./75% RH, 0 months): 0.25%
Water ([6]; 40° C./75% RH, 0 months): 1.59%
Chemical Purity Assay ([6]; 40° C./75% RH, 0 months): 99.3 wt %
Crystallinity ([6]; 40° C./75% RH, 0 months): Conforms
Description ([6]; 40° C./75% RH, 3 months): Off-white
Related Substances: Impurity #1 ([6]; 40° C./75% RH, 3 months): 0.25%
Total Impurities ([6]; 40° C./75% RH, 3 months): 0.25%
Water ([6]; 40° C./75% RH, 3 months): 1.56%
Chemical Purity Assay ([6]; 40° C./75% RH, 3 months): 99.3 wt %
Crystallinity ([6]; 40° C./75% RH, 3 months): Conforms
Chiral Purity ([6]; 40° C./75% RH, 6 months): >99.9 area %
Description ([6]; 40° C./75% RH, 6 months): Off-white
Related Substances: Impurity #1 ([6]; 40° C./75% RH, 6 months): 0.25%
Total Impurities ([6]; 40° C./75% RH, 6 months): 0.25%
Water ([6]; 40° C./75% RH, 6 months): 1.60%
Chemical Purity Assay ([6]; 40° C./75% RH, 6 months): 100.0 wt %
Crystallinity ([6]; 40° C./75% RH, 6 months): Conforms
Crystallinity [7]: Conforms
